{"source": "patent US20170252421A1", "about": "(priority 2014, published 2017)", "origin": "cited, not measured here", "data": [{"compound": "CN(C)C(=N)N=C(N)N", "note": "[metformin, Metformin]", "values": [{"measurement": "patients discontinuing the therapy due to the side effects", "setting": "oral metformin", "value": "up to 5%"}, {"measurement": "patients experiencing gastrointestinal side effects", "setting": "oral metformin", "value": "Up to 20%"}, {"measurement": "patients developing vitamin B12 deficiency", "setting": "patients taking metformin", "value": 77, "unit": "%"}, {"measurement": "reduction of morbidity and mortality rates", "setting": "treating insulin resistance", "value": "about 30%"}]}]}
